These results are taken from ChEMBL document CHEMBL1158029, “Bisabolanes from the red alga Laurencia scoparia” (J Nat Prod, 2006).

The source made the active and inactive calls. No cut-off for these calls is given here.

The assay concerns Nippostrongylus brasiliensis. Put plainly: Antihelminthic activity against L4 parasitant stage of Nippostrongylus brasiliensis. It counts as functional, organism-based.

`C[C@@H]1CC[C@]23[C@H]1CC[C@@]2(C)C[C@@](C)(O)[C@H]3C`: the outcome was inactive.
For the compound `C=C(C)C(O)CCC(=C)[C@]1(O)CC[C@](C)(Br)[C@@H](Cl)C1` (relative stereo), the result was inactive.
Still for that read-out and setting: in the case of `C=C(C)C(O)CCC(=C)[C@@]1(O)CC[C@](C)(Br)[C@@H](Cl)C1` (relative stereo) it was “inactive”.
For orientation: EC50 means the concentration giving half of the maximal effect. High values mean a need for much substance, low ones an effect from little substance. Compound `C=C(C[C@H](O)C=C(C)C)[C@@]1(O)CC[C@](C)(Br)[C@@H](Cl)C1` displayed an EC50 of 110 µM.
Regarding `C[C@@H]1CC[C@]23[C@H]1CC[C@@]2(C)C[C@H](C)[C@]3(C)O`, the result was inactive.
